Assay results as given in patent publication EP4813381A1, “PHARMACEUTICAL USE OF GUAIANE SESQUITERPENE DERIVATIVE” (Nanjing University Of Chinese Medicine, priority 2023, dated 2025).

Columns and labels:
MDSCs and T cells = test: T cell proliferation in a co-culture model of MDSCs and T cells (flow cytometry); assay type: cell-based, mice; details: MDSCs treated with 1 µM compound for 12 h, 48 h co-culture with T cells (1:1), compared to the control group
Method: Under sterile conditions, the tibia was removed, both ends of the bone were cut, and bone marrow was repeatedly flushed into a 15 mL centrifuge tube using a 1 mL syringe filled with culture medium. Centrifuge at 1600 rpm for 5 min to collect bone marrow cells. […] The spleen cell suspension was then transferred into a 15 mL centrifuge tube. Centrifuge at 1600 rpm for 5 min to collect T cells. Wash twice with 1×PBS. Resuspend the centrifuged T cells in 1 mL PBS and add 1 mL of 10 µM CFDA-SE solution. Incubate at room temperature for 8 min. […] After drug administration, collect MDSC cells into centrifuge tubes. Centrifuge at 1600 rpm for 5 min, remove supernatant, resuspend in 1 mL fresh medium, and plate. Add 1 mL stimulated activated T cells (1:1 ratio) for 48 h co-culture. After incubation, collect cells into centrifuge tubes, wash twice with PBS, and incubate with Fc antibody at room temperature in the dark for 10 min. Add CD3-labeled flow cytometry antibody and incubate at 4 °C in the dark for 30 min. After incubation, wash cells with PBS, resuspend in 300 µL PBS, and analyze by flow cytometry.

CT26 cells = assay type: in vivo, BALB/c mice; details: CT26, oral 80 µmol/kg/day, 3 weeks
[1] = test system: MC903-induced atopic dermatitis (AD); test: MC903-induced ear atopic dermatitis mouse model, oral Compound 20: dermatitis score, ear thickness, serum IgE; details: for IgE: serum, AD mice
[2] = test system: inflammatory cytokines (IL-1β, IL-6); test: LPS acute lung injury model in mice: ELISA of inflammatory cytokines; assay type: in vivo, C57BL/6 mice
Excerpt: The abdomen was opened, and the lungs were removed. They were rinsed twice with pre-chilled PBS. […] P values less than 0.05 were considered statistically significant.

[3] = test system: Human keratinocytes (Hacat); test: Hyaluronic acid and hyaluronidase levels in UVB-irradiated human keratinocytes; assay type: cell-based; details: UVB 90 mJ/cm^2, 24 h
Method: Human keratinocytes (Hacat) were cultured routinely in DMEM medium containing 10% FBS within a 5% CO2 incubator.

CCR2 mRNA = CCR2 mRNA level in MDSCs (PCR); assay type: cell-based, mice; details: CCR2 mRNA levels in MDSCs, 2 h
Method: Mice were euthanized by cervical dislocation and immersed in 75% ethanol solution for 5 min. Under sterile conditions, the tibia was removed, both ends of the bone were cut, and bone marrow was repeatedly flushed into a 15 mL centrifuge tube using a 1 mL syringe filled with culture medium. Centrifuge at 1600 rpm for 5 min to collect bone marrow cells. Wash twice with 1×PBS, then resuspend in RPMI 1640 complete medium containing GM-CSF (10 ng/mL) + IL-4 (10 ng/mL) and transfer to a cell culture dish to stimulate differentiation of bone marrow cells into MDSCs. Count cells and adjust density to 1 × 10^6 cells/mL in complete medium. Seed cells uniformly into 6-well plates at 2 mL per well. […] After incubation, collect cells into centrifuge tubes, centrifuge at 1600 rpm for 5 min, wash once with 1×PBS, and add 500 µL RNA extraction reagent to each tube. After centrifugation to obtain the pellet, add 20 µL DEPC-treated water to each tube to dissolve the pellet. Determine RNA concentration and reverse transcribe to cDNA. Add the cDNA, primers, and reverse transcriptase to a 96-well plate. Centrifuge at 4000 rpm for 5 min, then place in a PCR instrument for detection.

[4] = oral gavage 0.1 mg/kg for three days
[5] = oral gavage 1 mg/kg for three days

CN(C)C[C@@H]1C(=O)O[C@H]2[C@H]1CC[C@@]1(C)C[C@]13CC[C@@](C)(O)[C@H]23 [compound 20]
T-cell proliferation rate (%) (MDSCs and T cells): + (T-cell proliferation rate within the 0-20% range compared to the control group)
antitumor effects (CT26 cells): tumor-inhibiting effects
atopic dermatitis score ([1]; oral 0.1 mg/kg, Day 1): 0.00±0.00
ear thickness ([1]; oral 0.1 mg/kg, Day 1): 0.20±0.00 mm
atopic dermatitis score ([1]; oral 0.1 mg/kg, Day 3): 0.67±0.21
ear thickness ([1]; oral 0.1 mg/kg, Day 3): 0.24±0.00 mm
atopic dermatitis score ([1]; oral 0.1 mg/kg, Day 5): 1.33±0.21
ear thickness ([1]; oral 0.1 mg/kg, Day 5): 0.26±0.00 mm
atopic dermatitis score ([1]; oral 0.1 mg/kg, Day 7): 2.17±0.17
ear thickness ([1]; oral 0.1 mg/kg, Day 7): 0.26±0.00 mm
atopic dermatitis score ([1]; oral 0.1 mg/kg, Day 8): 2.50±0.22
ear thickness ([1]; oral 0.1 mg/kg, Day 8): 0.27±0.00 mm
atopic dermatitis score ([1]; oral 0.1 mg/kg, Day 9): 3.00±0.26
ear thickness ([1]; oral 0.1 mg/kg, Day 9): 0.28±0.00 mm
atopic dermatitis score ([1]; oral 0.1 mg/kg, Day 10): 3.50±0.22
ear thickness ([1]; oral 0.1 mg/kg, Day 10): 0.29±0.00 mm
atopic dermatitis score ([1]; oral 0.1 mg/kg, Day 11): 3.67±0.21
ear thickness ([1]; oral 0.1 mg/kg, Day 11): 0.30±0.00 mm
atopic dermatitis score ([1]; oral 0.1 mg/kg, Day 12): 3.33±0.21
ear thickness ([1]; oral 0.1 mg/kg, Day 12): 0.30±0.00 mm
atopic dermatitis score ([1]; oral 0.1 mg/kg, Day 13): 3.00±0.00
ear thickness ([1]; oral 0.1 mg/kg, Day 13): 0.30±0.00 mm
atopic dermatitis score ([1]; oral 0.1 mg/kg, Day 14): 2.67±0.21
ear thickness ([1]; oral 0.1 mg/kg, Day 14): 0.29±0.00 mm
atopic dermatitis score ([1]; oral 1 mg/kg, Day 1): 0.00±0.00
ear thickness ([1]; oral 1 mg/kg, Day 1): 0.20±0.00 mm
atopic dermatitis score ([1]; oral 1 mg/kg, Day 3): 0.50±0.22
ear thickness ([1]; oral 1 mg/kg, Day 3): 0.23±0.00 mm
atopic dermatitis score ([1]; oral 1 mg/kg, Day 5): 1.17±0.17
ear thickness ([1]; oral 1 mg/kg, Day 5): 0.24±0.00 mm
atopic dermatitis score ([1]; oral 1 mg/kg, Day 7): 1.67±0.21
ear thickness ([1]; oral 1 mg/kg, Day 7): 0.26±0.00 mm
atopic dermatitis score ([1]; oral 1 mg/kg, Day 8): 2.17±0.17
ear thickness ([1]; oral 1 mg/kg, Day 8): 0.27±0.00 mm
atopic dermatitis score ([1]; oral 1 mg/kg, Day 9): 2.83±0.17
ear thickness ([1]; oral 1 mg/kg, Day 9): 0.28±0.00 mm
atopic dermatitis score ([1]; oral 1 mg/kg, Day 10): 3.00±0.00
ear thickness ([1]; oral 1 mg/kg, Day 10): 0.28±0.00 mm
atopic dermatitis score ([1]; oral 1 mg/kg, Day 11): 3.17±0.17
ear thickness ([1]; oral 1 mg/kg, Day 11): 0.28±0.00 mm
atopic dermatitis score ([1]; oral 1 mg/kg, Day 12): 2.67±0.21
ear thickness ([1]; oral 1 mg/kg, Day 12): 0.27±0.00 mm
atopic dermatitis score ([1]; oral 1 mg/kg, Day 13): 2.50±0.22
ear thickness ([1]; oral 1 mg/kg, Day 13): 0.27±0.00 mm
atopic dermatitis score ([1]; oral 1 mg/kg, Day 14): 2.00±0.00
ear thickness ([1]; oral 1 mg/kg, Day 14): 0.27±0.00 mm
atopic dermatitis score ([1]; oral 10 mg/kg, Day 1): 0.00±0.00
ear thickness ([1]; oral 10 mg/kg, Day 1): 0.20±0.00 mm
atopic dermatitis score ([1]; oral 10 mg/kg, Day 3): 0.67±0.21
ear thickness ([1]; oral 10 mg/kg, Day 3): 0.23±0.00 mm
atopic dermatitis score ([1]; oral 10 mg/kg, Day 5): 1.00±0.00
ear thickness ([1]; oral 10 mg/kg, Day 5): 0.25±0.00 mm
atopic dermatitis score ([1]; oral 10 mg/kg, Day 7): 2.00±0.00
ear thickness ([1]; oral 10 mg/kg, Day 7): 0.26±0.00 mm
atopic dermatitis score ([1]; oral 10 mg/kg, Day 8): 2.50±0.22
ear thickness ([1]; oral 10 mg/kg, Day 8): 0.27±0.00 mm
atopic dermatitis score ([1]; oral 10 mg/kg, Day 9): 2.83±0.17
ear thickness ([1]; oral 10 mg/kg, Day 9): 0.27±0.00 mm
atopic dermatitis score ([1]; oral 10 mg/kg, Day 10): 2.67±0.42
ear thickness ([1]; oral 10 mg/kg, Day 10): 0.27±0.00 mm
atopic dermatitis score ([1]; oral 10 mg/kg, Day 11): 3.00±0.26
ear thickness ([1]; oral 10 mg/kg, Day 11): 0.27±0.00 mm
atopic dermatitis score ([1]; oral 10 mg/kg, Day 12): 2.33±0.33
ear thickness ([1]; oral 10 mg/kg, Day 12): 0.25±0.00 mm
atopic dermatitis score ([1]; oral 10 mg/kg, Day 13): 1.67±0.21
ear thickness ([1]; oral 10 mg/kg, Day 13): 0.25±0.00 mm
atopic dermatitis score ([1]; oral 10 mg/kg, Day 14): 1.50±0.22
ear thickness ([1]; oral 10 mg/kg, Day 14): 0.24±0.01 mm
IgE ([1]; oral 0.1 mg/kg): 239.26 ± 48.93 ng/mL
IgE ([1]; oral 1 mg/kg): 167.90 ± 21.03 ng/mL
IgE ([1]; oral 10 mg/kg): 145.68 ± 23.19 ng/mL

C=C1C(=O)O[C@@H]2[C@@H]3[C@]4(CC[C@@]3(C)O)C[C@]4(C)CC[C@@H]12 [compound 1]
IL-1β [2, 4]: 1824.88 ± 32.73 pg/mL
IL-6 [2, 4]: 2760.57 ± 288.02 pg/mL
IL-1β [2, 5]: 945.66 ± 36.71 pg/mL
IL-6 [2, 5]: 1314.91 ± 231.08 pg/mL
Hyaluronic acid ([3]; 0.01 µM): 8.73 ± 1.62 ng/mL
Hyaluronidase ([3]; 0.01 µM): 124.41 ± 16.49 ng/mL
Hyaluronic acid ([3]; 0.1 µM): 14.17 ± 1.30 ng/mL
Hyaluronidase ([3]; 0.1 µM): 88.07 ± 10.17 ng/mL
Hyaluronic acid ([3]; 1 µM): 19.51 ± 1.87 ng/mL
Hyaluronidase ([3]; 1 µM): 56.03 ± 5.53 ng/mL
Hyaluronic acid ([3]; 10 µM): 24.82 ± 1.13 ng/mL
Hyaluronidase ([3]; 10 µM): 37.73 ± 11.49 ng/mL
CCR2 mRNA suppression rate in MDSCs (%) (CCR2 mRNA; 1 µM): 35.2%
CCR2 mRNA suppression rate in MDSCs (%) (CCR2 mRNA; 10 µM): 76.5%
